Values of other authors, collected in US10927398B2, “Compositions for CYP450 phenotyping using saliva samples” (Concordia University, Inc., priority 2015, dated 2021).
Like-named read-outs stand apart in the source and are kept apart here.

What was measured:
[1] = cited from earlier work
[2] = tested on: plasma protein; settings: cited from earlier work
[3] = cited from earlier work; remark: listed apart in the source
[4] = Table of Exemplary Drugs, CYP1A2
[5] = Table of Exemplary Drugs, CYP3A4
[6] = Table of Exemplary Drugs, CYP2D6
[7] = Table of Exemplary Drugs, CYP2C9
[8] = Table of Exemplary Drugs, CYP2C19

Structure (SMILES): COc1ccc2cccc(CCNC(C)=O)c2c1 [Agomelatine]
- ORAL BIOAVAILABILITY [1, 4]: <5%
- PLASMA PROTEIN BINDING [2, 4]: 95%
- HALF-LIFE [3, 4]: 1 to 2 h

Structure (SMILES): COc1cc2nc(N(C)CCCNC(=O)C3CCCO3)nc(N)c2cc1OC (centres unmarked) [Alfazosin (Uroxatral), Alfazosin]
- ORAL BIOAVAILABILITY ([1]; in vivo, po): 49%
- PLASMA PROTEIN BINDING ([2]; plasma): 86%
- HALF-LIFE ([3]; in vivo): 10 h

Structure (SMILES): Cc1nnc2n1-c1ccc(Cl)cc1C(c1ccccc1)=NC2 [Alprazolam (Xanax), Alprazolam]
- ORAL BIOAVAILABILITY [1, 5]: 90%
- PLASMA PROTEIN BINDING [2, 5]: 80%
- HALF-LIFE [3, 5]: 11 h

Structure (SMILES): C=CCc1ccccc1OCC(O)CNC(C)C (centres unmarked) [Alprenolol]
- ORAL BIOAVAILABILITY [1, 6]: 20%
- PLASMA PROTEIN BINDING [2, 6]: 80%
- HALF-LIFE [3, 6]: 2 to 3 h

Structure (SMILES): CN(C)CCC=C1c2ccccc2CCc2ccccc21 [Amitriptyline]
- ORAL BIOAVAILABILITY [1, 4]: ~43-46%
- ORAL BIOAVAILABILITY [1, 7]: 30-60%
- ORAL BIOAVAILABILITY [1, 8]: 30-60%
- ORAL BIOAVAILABILITY [1, 6]: ~43-46%
- PLASMA PROTEIN BINDING [2, 4]: >90%
- PLASMA PROTEIN BINDING [2, 7]: >90%
- PLASMA PROTEIN BINDING [2, 8]: >90%
- PLASMA PROTEIN BINDING [2, 6]: >90%
- HALF-LIFE [3, 4]: ~13 to 36 h
- HALF-LIFE [3, 7]: 15 h
- HALF-LIFE [3, 8]: 15 h
- HALF-LIFE [3, 6]: ~13 to 36 h

Structure (SMILES): C[C@@H](O[C@H]1OCCN(Cc2n[nH]c(=O)[nH]2)[C@H]1c1ccc(F)cc1)c1cc(C(F)(F)F)cc(C(F)(F)F)c1 [Aprepitant (Emend), Aprepitant]
- ORAL BIOAVAILABILITY [1, 5]: 60-65%
- PLASMA PROTEIN BINDING [2, 5]: 95%
- HALF-LIFE [3, 5]: 9 to 13 h

Structure (SMILES): COC(=O)N[C@H](C(=O)N[C@@H](Cc1ccccc1)[C@@H](O)CN(Cc1ccc(-c2ccccn2)cc1)NC(=O)[C@@H](NC(=O)OC)C(C)(C)C)C(C)(C)C [Atazanavir (Reyataz), Atazanavir]
- ORAL BIOAVAILABILITY [1, 5]: 60-68%
- PLASMA PROTEIN BINDING [2, 5]: 86%
- HALF-LIFE [3, 5]: 7 h

Structure (SMILES): CNCC[C@@H](Oc1ccccc1C)c1ccccc1 [Atomoxetine]
- ORAL BIOAVAILABILITY [1, 6]: 63%
- PLASMA PROTEIN BINDING [2, 6]: 98%
- HALF-LIFE [3, 6]: 5.2 h

Structure (SMILES): COc1ccccc1Oc1c(NS(=O)(=O)c2ccc(C(C)(C)C)cc2)nc(-c2ncccn2)nc1OCCO [Basentan (Tracleer), Basentan]
- ORAL BIOAVAILABILITY [1, 5]: 50%
- PLASMA PROTEIN BINDING [2, 5]: 98%
- HALF-LIFE [3, 5]: 5 h

Structure (SMILES): CC(C)C[C@H]1C(=O)N2CCC[C@H]2[C@]2(O)O[C@](NC(=O)[C@@H]3C=C4c5cccc6[nH]c(Br)c(c56)C[C@H]4N(C)C3)(C(C)C)C(=O)N12 [Bromocriptine (Parlodel), Bromocriptine]
- ORAL BIOAVAILABILITY [1, 5]: 65-95%
- PLASMA PROTEIN BINDING [2, 5]: 90-96% ^
- HALF-LIFE [3, 5]: 6 to 20 h

Structure (SMILES): CCCC1O[C@@H]2C[C@H]3[C@@H]4CCC5=CC(=O)C=C[C@]5(C)[C@H]4[C@@H](O)C[C@]3(C)[C@]2(C(=O)CO)O1 (some centres unmarked) [Budesonide (Entocort), Budesonide]
- ORAL BIOAVAILABILITY [1, 5]: 9-21%
- PLASMA PROTEIN BINDING [2, 5]: 85-90% ^
- HALF-LIFE [3, 5]: 2 to 3.6 h

Structure (SMILES): COc1ccccc1OCCNCC(O)COc1cccc2[nH]c3ccccc3c12 (centres unmarked) [Carvedilol]
- ORAL BIOAVAILABILITY [1, 6]: 25-35%
- PLASMA PROTEIN BINDING [2, 6]: 95-98% ^
- HALF-LIFE [3, 6]: 6 to 10 h

Structure (SMILES): CN(C)CCCN1c2ccccc2Sc2ccc(Cl)cc21 [Chlorpromazine]
- ORAL BIOAVAILABILITY [1, 6]: 32%
- PLASMA PROTEIN BINDING [2, 6]: 90-99% ^
- HALF-LIFE [3, 6]: 6 h

Structure (SMILES): O=C1CCc2cc(OCCCCc3nnnn3C3CCCCC3)ccc2N1 [Cilostazol (Pletal), Cilostazol]
- ORAL BIOAVAILABILITY [1, 5]: 87-100%
- PLASMA PROTEIN BINDING [2, 5]: 95-98% ^
- HALF-LIFE [3, 5]: 11 to 13 h

Structure (SMILES): COc1cc(N)c(Cl)cc1C(=O)NC1CCN(CCCOc2ccc(F)cc2)CC1OC (centres unmarked) [Cisapride (Propulsid), Cisapride]
- ORAL BIOAVAILABILITY [1, 5]: 35-65%
- PLASMA PROTEIN BINDING [2, 5]: 98%
- HALF-LIFE [3, 5]: 6 to 12 h

Structure (SMILES): CN(C)CCCC1(c2ccc(F)cc2)OCc2cc(C#N)ccc21 (centres unmarked) [Citalopram]
- ORAL BIOAVAILABILITY [1, 8]: 80%
- PLASMA PROTEIN BINDING [2, 8]: 80%
- HALF-LIFE [3, 8]: 35 h

Structure (SMILES): CC[C@H]1OC(=O)[C@H](C)[C@@H](O[C@H]2C[C@@](C)(OC)[C@@H](O)[C@H](C)O2)[C@H](C)[C@@H](O[C@@H]2O[C@H](C)C[C@H](N(C)C)[C@H]2O)[C@](C)(OC)C[C@@H](C)C(=O)[C@H](C)[C@@H](O)[C@]1(C)O [Clarithromycin (Biaxin), Clarithromycin]
- ORAL BIOAVAILABILITY [1, 5]: 55%
- PLASMA PROTEIN BINDING [2, 5]: Low
- HALF-LIFE [3, 5]: 4 h

Structure (SMILES): COC(=O)[C@H](c1ccccc1Cl)N1CCc2sccc2C1 [Clopidogrel]
- ORAL BIOAVAILABILITY [1, 8]: >50%
- ORAL BIOAVAILABILITY [1, 5]: >50%
- PLASMA PROTEIN BINDING [2, 8]: 98%
- PLASMA PROTEIN BINDING [2, 5]: 94-98% ^
- HALF-LIFE [3, 5]: 6 h

Structure (SMILES): CN1CCN(C2=Nc3cc(Cl)ccc3Nc3ccccc32)CC1 [Clozapine]
- ORAL BIOAVAILABILITY [1, 4]: 12-81%
- PLASMA PROTEIN BINDING [2, 4]: 97%
- HALF-LIFE [3, 4]: 4 to 66 h

Structure (SMILES): Nc1ccc(S(=O)(=O)c2ccc(N)cc2)cc1 [Dapsone (Avlosulfon), Dapsone]
- ORAL BIOAVAILABILITY [1, 5]: 86-104%
- PLASMA PROTEIN BINDING [2, 5]: 70-90% ^

Structure (SMILES): O=C(O)Cc1ccccc1Nc1c(Cl)cccc1Cl [Diclofenac]
- ORAL BIOAVAILABILITY [1, 7]: 50%
- HALF-LIFE [3, 7]: 1.9 to 2.2 h

Structure (SMILES): CN1C[C@H](C(=O)N[C@]2(C)O[C@@]3(O)[C@@H]4CCCN4C(=O)[C@H](Cc4ccccc4)N3C2=O)C=C2c3cccc4[nH]cc(c34)C[C@H]21 [Ergotamine (Ergomar), Ergotamine]
- ORAL BIOAVAILABILITY ([1]; in vivo, po): <5%
- HALF-LIFE ([3]; in vivo): 1.5 to 2.5 h

Structure (SMILES): CCC1(C)CC(=O)NC1=O (centres unmarked) [Ethosuximide (Zarontin), Ethosuximide]
- ORAL BIOAVAILABILITY [1, 5]: 93%
- HALF-LIFE [3, 5]: 25 to 60 h

Structure (SMILES): CC(C)(C)NC(=O)[C@H]1CC[C@H]2[C@@H]3CC[C@H]4NC(=O)C=C[C@]4(C)[C@H]3CC[C@]12C [Finasteride (Proscar), Finasteride]
- ORAL BIOAVAILABILITY [1, 5]: 65%
- HALF-LIFE [3, 5]: 4.5 h

Structure (SMILES): CN(C)CCCN1c2ccccc2CCc2ccccc21 [Imipramine]
- ORAL BIOAVAILABILITY [1, 4]: 22-77%
- ORAL BIOAVAILABILITY [1, 8]: 94-96%
- ORAL BIOAVAILABILITY [1, 6]: 94-96%
- PLASMA PROTEIN BINDING [2, 4]: 60-96% ^
- PLASMA PROTEIN BINDING [2, 8]: 89%
- PLASMA PROTEIN BINDING [2, 6]: 89%

Structure (SMILES): COc1ccc2c(c1)N(C[C@H](C)CN(C)C)c1ccccc1S2 [Levomepromazine]
- ORAL BIOAVAILABILITY [1, 6]: 50-60%
- HALF-LIFE [3, 6]: 15 h

Structure (SMILES): CN(C)C(=O)C(CCN1CCC(O)(c2ccc(Cl)cc2)CC1)(c1ccccc1)c1ccccc1 [Loperamide (Imodium), Loperamide]
- ORAL BIOAVAILABILITY [1, 5]: 0.30%
- HALF-LIFE [3, 5]: 9 to 14 h

Structure (SMILES): COc1ccc2[nH]cc(CCNC(C)=O)c2c1 [Melatonin]
- ORAL BIOAVAILABILITY [1, 4]: 3-76%
- HALF-LIFE [3, 4]: 0.583 to 0.833 h

Structure (SMILES): Cc1cc2c(s1)Nc1ccccc1N=C2N1CCN(C)CC1 [Olanzapine]
- ORAL BIOAVAILABILITY [1, 4]: 87%
- HALF-LIFE [3, 4]: 21 to 54 h

Structure (SMILES): C[C@H](/C=C/[C@H](C)C(C)(C)O)[C@H]1CC[C@H]2/C(=C/C=C3C[C@@H](O)C[C@H](O)C3)CCC[C@]12C [Paricalcitol (Zemplar), Paricalcitol]
- ORAL BIOAVAILABILITY [1, 5]: 72%
- HALF-LIFE [3, 5]: 5 to 7 h

Structure (SMILES): OCCN1CCN(CCCN2c3ccccc3Sc3ccc(Cl)cc32)CC1 [Perphenazine]
- ORAL BIOAVAILABILITY [1, 6]: 20%
- HALF-LIFE [3, 6]: 9 to 12 h

Structure (SMILES): CC(C)NCC(O)COc1cccc2ccccc12 (centres unmarked) [Propranolol]
- ORAL BIOAVAILABILITY [1, 4]: 100%
- ORAL BIOAVAILABILITY [1, 8]: 30-70%
- ORAL BIOAVAILABILITY [1, 6]: 30-70%
- HALF-LIFE [3, 4]: 4 h
- HALF-LIFE [3, 8]: 3 to 6 h
- HALF-LIFE [3, 6]: 3 to 6 h

Structure (SMILES): C=C[C@H]1C[N@@]2CC[C@H]1C[C@@H]2[C@@H](O)c1ccnc2ccc(OC)cc12 [Quinidine]
- ORAL BIOAVAILABILITY [1, 5]: 70-80%
- PLASMA PROTEIN BINDING [2, 5]: 50-88% ^

Structure (SMILES): CC(C)(C)NC[C@H](O)COc1nsnc1N1CCOCC1 [Timolol]
- ORAL BIOAVAILABILITY [1, 6]: 90%
- PLASMA PROTEIN BINDING [2, 6]: <10%

Structure (SMILES): Clc1ccc2nsnc2c1NC1=NCCN1 [Tizanidine]
- ORAL BIOAVAILABILITY [1, 4]: 40%
- PLASMA PROTEIN BINDING [2, 4]: 30%

Structure (SMILES): CC1(C)O[C@@H]2[C@@H](CO[C@@]3(COS(N)(=O)=O)OC(C)(C)O[C@@H]23)O1 [Topiramate (Topamax), Topiramate]
- ORAL BIOAVAILABILITY [1, 5]: 80%
- PLASMA PROTEIN BINDING [2, 5]: 15-41% ^

Structure (SMILES): COc1ccc(C(CN(C)C)C2(O)CCCCC2)cc1 (centres unmarked) [Venlafaxine]
- ORAL BIOAVAILABILITY [1, 6]: 12.6%
- PLASMA PROTEIN BINDING [2, 6]: 27-30% ^

Structure (SMILES): O=C1Cc2cc(CCN3CCN(c4nsc5ccccc45)CC3)c(Cl)cc2N1 [Ziprasidone (Geodon), Ziprasidone]
- ORAL BIOAVAILABILITY [1, 5]: 60%
- HALF-LIFE [3, 5]: 7 h

Structure (SMILES): CN(C)CCc1c[nH]c2ccc(C[C@H]3COC(=O)N3)cc12 [Zolmitriptan]
- ORAL BIOAVAILABILITY [1, 4]: ~40%
- PLASMA PROTEIN BINDING [2, 4]: 25%
